Results taken from article PMC9249808, “A novel lipidic peptide with potential to promote balanced effector-regulatory T cell responses” (Scientific Reports, 2022).
Non-standard residues stand in square brackets, D forms with d. Residues, ends and D or L forms follow the SMILES beside them. Gly(decyl) = CCCCCCCCCC[C@H](N)C(=O)O

Assays:
[1] = system: c-Src; assay: Kinase profiling, c-Src; type: biochemical; settings: Eurofins KinaseProfiler, [γ-33P-ATP] scintillation, 0.003-10 uM, 2% DMSO, no pre-incubation; Fig. 6d (IK14004 at concentrations below 3 µM), Fig. 6e
Procedure: (§1) Non-cell-based kinase profiling assays were performed by Eurofins (France). All compounds were prepared to 50 × final assay concentration in 100% DMSO. This working stock of the compound was added to assay wells as the first component in the reaction, followed by the remaining components as detailed in the specific assay protocols below. In the standard KinaseProfiler service, there was no pre-incubation step between the compound and the kinase prior to initiation of the reaction. Control wells contained all components of the reaction, except the compound of interest; however, DMSO (at a final concentration of 2%) was included in these wells to control for solvent effects. […] The reference inhibitors for each kinase are indicated in the methods for each kinase assay. […] Kinase activities were assessed in the presence of compounds at a concentration range of 0.003 -10 uM and the following kinases were tested: c-Src, Lck, Jak1, Jak2, Tyk2, CaMKIV and HPK1 (MAP4K1). Reactions between IK14004, substrates and MgAcetate/[γ^33P-ATP] mixes for each respective kinase were stopped by the addition of phosphoric acid and reaction mixtures spotted on P30 filtermats for scintillation according to the detailed methods available from Eurofins. The activities of Lck and c-Src were also assessed in the presence of the unconjugated components of IK14004, i.e., […] […]

[2] = system: Lck; assay: Kinase profiling, Lck; type: biochemical; settings: Eurofins KinaseProfiler, [γ-33P-ATP] scintillation, 0.003-10 uM, 2% DMSO, no pre-incubation, Fig. 6c, 6e
Procedure: Non-cell-based kinase profiling assays were performed by Eurofins (France). All compounds were prepared to 50 × final assay concentration in 100% DMSO. This working stock of the compound was added to assay wells as the first component in the reaction, followed by the remaining components as detailed in the specific assay protocols below. In the standard KinaseProfiler service, there was no pre-incubation step between the compound and the kinase prior to initiation of the reaction. Control wells contained all components of the reaction, except the compound of interest; however, DMSO (at a final concentration of 2%) was included in these wells to control for solvent effects. […] The reference inhibitors for each kinase are indicated in the methods for each kinase assay. […] Kinase activities were assessed in the presence of compounds at a concentration range of 0.003 -10 uM and the following kinases were tested: c-Src, Lck, Jak1, Jak2, Tyk2, CaMKIV and HPK1 (MAP4K1). Reactions between IK14004, substrates and MgAcetate/[γ^33P-ATP] mixes for each respective kinase were stopped by the addition of phosphoric acid and reaction mixtures spotted on P30 filtermats for scintillation according to the detailed methods available from Eurofins. The activities of Lck and c-Src were also assessed in the presence of the unconjugated components of IK14004, i.e., […] (IK14000) and the dodecanoic acid moiety [(2)Adod]4 (IK00041) and a lipidic peptide containing substituted amino acid residues (IK14DE04).

[3] = target: T1, JAK1 (Homo sapiens, UniProt P23458); assay: Kinase profiling, JAK1; type: biochemical
T1 construct: purchased Eurofins (France), KinaseProfiler service
Procedure: as §1

[4] = target: T2, CaMKIV (Homo sapiens, UniProt Q16566); assay: Kinase profiling, CaMKIV; type: biochemical
T2 construct: purchased Eurofins (France), KinaseProfiler service
Procedure: as §1

[5] = target: T3, HPK1 (MAP4K1) (Homo sapiens, UniProt Q92918); assay: Kinase profiling, HPK1; type: biochemical
T3 construct: purchased Eurofins (France), KinaseProfiler service
Procedure: as §1

[6] = system: Lck; settings: in vitro; read-out: IC50, inhibition of Lck activity; cited from earlier work
[7] = system: CD3+ T cell cultures; assay: Cytokine ELISA on supernatants of isolated CD3+ T cell cultures; type: cell-based, human
Procedure: CD3^+ T cells were isolated from PBMCs by negative selection using immune-magnetic separation (Stem cell kits), resuspended in complete medium as used for PBMCs at 0.5 × 10^6/mL and plated at a density of 5 × 10^4 per well (100 µL) in 96-well, flat bottom culture plates. CD4^+ and CD8^+ T cell populations were isolated by immunomagnetic separation and resuspended in RPMI-10 at 0.5 × 10^6/mL with a plating density of 0.5 × 10^5 per well. Either the lipidic peptide, IK14004, or IK14000 ([…]) was added to wells at a final volume of 50 µL per well, together with anti-CD3 anti-CD28 coated Dynabeads (ThermoFisher) at a 4:1 cell:bead ratio (1.25 × 10^4/well, 50 µL volume) and cells cultured for 72 h at 37 °C and 5% CO2.
Supernatants were obtained from PBMC and isolated CD3+ T cells cultures to assess production of IL-2, IL-12p70, IL-10 and IFN-γ (ThermoFisher kits) and IL-12p40 (Biolegend). […] ELISA plates were read at 450 nm using an Infinite F50 (Tecan) absorbance reader and Magellan™ reader control and data analysis software. Flow cytometry data was exported as FCS files from Attune™ NxT software and analysed using FlowJo™ software, from which data were tabulated for export to Microsoft Excel. […]
For flow cytometry and ELISA experiments, data from IK14004 and vehicle groups were analysed using parametric statistical procedures. […]

[8] = system: IL-2 production; settings: cited from earlier work
[9] = target: T4, Tyk2 (Homo sapiens, UniProt P29597); assay: Kinase profiling, Tyk2; type: biochemical; settings: non-cell-based, [γ-33P-ATP], 2% DMSO, no pre-incubation, Fig. 6i
T4 construct: purchased Eurofins (France), KinaseProfiler service
Procedure: as §1

[10] = system: CD40L expression; settings: 48 h, in vitro; cited from earlier work
Excerpt: An integrated understanding of how IL-2 and TCR co-stimulatory signals combine to control homeostasis in distinct tissue locations is lacking. The effects of IK14004 on cytokine production are shown in the Schematic (Fig. 7) together with putative effects on kinase-mediated signalling pathways involved in production of these cytokines. Maturation of DCs involves CD40L-CD40 interactions dependent upon T helper expression of CD40L[21],[22].

[11] = blank wells, baseline 0% kinase activity remaining

T3 sequence (Q92918 whole entry): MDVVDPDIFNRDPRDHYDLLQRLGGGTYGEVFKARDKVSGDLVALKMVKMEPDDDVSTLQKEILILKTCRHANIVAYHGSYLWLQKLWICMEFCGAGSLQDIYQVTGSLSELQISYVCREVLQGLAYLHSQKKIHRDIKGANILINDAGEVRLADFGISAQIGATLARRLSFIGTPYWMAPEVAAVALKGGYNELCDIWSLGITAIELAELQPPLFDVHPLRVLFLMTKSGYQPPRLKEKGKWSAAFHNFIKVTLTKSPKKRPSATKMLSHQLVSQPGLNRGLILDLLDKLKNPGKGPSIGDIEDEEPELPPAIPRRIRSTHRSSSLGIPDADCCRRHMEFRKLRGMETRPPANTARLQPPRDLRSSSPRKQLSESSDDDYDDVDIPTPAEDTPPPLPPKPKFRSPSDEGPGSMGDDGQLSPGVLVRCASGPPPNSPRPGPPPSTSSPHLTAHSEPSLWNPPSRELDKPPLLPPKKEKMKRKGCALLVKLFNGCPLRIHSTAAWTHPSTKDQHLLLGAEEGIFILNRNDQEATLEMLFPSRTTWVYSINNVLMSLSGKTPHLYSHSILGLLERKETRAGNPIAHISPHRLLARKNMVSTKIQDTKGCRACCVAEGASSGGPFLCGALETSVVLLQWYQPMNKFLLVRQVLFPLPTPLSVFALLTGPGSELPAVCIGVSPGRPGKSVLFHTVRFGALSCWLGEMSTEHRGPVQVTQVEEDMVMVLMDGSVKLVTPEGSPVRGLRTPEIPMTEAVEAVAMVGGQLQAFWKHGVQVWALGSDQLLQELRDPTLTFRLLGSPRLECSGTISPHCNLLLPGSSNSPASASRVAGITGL
T1 sequence (P23458 whole entry): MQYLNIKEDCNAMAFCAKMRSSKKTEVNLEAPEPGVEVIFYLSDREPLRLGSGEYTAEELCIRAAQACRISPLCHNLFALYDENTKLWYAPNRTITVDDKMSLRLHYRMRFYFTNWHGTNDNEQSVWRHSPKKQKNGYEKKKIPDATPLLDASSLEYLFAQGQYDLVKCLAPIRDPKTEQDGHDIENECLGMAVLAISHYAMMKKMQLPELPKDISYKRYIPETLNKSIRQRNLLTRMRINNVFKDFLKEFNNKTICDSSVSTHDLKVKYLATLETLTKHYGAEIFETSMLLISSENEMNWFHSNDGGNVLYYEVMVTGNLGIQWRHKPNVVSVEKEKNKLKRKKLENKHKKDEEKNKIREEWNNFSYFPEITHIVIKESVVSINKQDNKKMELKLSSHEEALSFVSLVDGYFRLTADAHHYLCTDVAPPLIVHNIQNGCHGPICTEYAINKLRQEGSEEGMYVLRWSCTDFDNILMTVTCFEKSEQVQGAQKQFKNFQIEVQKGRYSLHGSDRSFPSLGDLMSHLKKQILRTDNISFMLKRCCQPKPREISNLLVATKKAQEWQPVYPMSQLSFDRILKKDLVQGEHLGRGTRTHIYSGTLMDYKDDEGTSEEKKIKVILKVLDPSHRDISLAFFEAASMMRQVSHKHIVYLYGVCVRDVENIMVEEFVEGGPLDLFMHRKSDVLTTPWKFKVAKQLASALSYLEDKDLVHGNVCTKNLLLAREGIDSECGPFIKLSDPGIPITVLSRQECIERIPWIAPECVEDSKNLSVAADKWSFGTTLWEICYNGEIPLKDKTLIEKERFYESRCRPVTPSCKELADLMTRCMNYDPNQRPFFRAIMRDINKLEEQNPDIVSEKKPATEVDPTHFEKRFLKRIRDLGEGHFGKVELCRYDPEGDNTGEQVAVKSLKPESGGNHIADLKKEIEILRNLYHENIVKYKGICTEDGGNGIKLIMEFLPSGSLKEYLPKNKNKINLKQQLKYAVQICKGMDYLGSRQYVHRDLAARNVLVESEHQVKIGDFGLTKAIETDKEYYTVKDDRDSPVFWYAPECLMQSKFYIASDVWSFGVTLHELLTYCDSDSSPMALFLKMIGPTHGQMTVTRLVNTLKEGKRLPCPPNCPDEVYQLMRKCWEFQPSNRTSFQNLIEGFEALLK
T4 sequence (P29597 whole entry): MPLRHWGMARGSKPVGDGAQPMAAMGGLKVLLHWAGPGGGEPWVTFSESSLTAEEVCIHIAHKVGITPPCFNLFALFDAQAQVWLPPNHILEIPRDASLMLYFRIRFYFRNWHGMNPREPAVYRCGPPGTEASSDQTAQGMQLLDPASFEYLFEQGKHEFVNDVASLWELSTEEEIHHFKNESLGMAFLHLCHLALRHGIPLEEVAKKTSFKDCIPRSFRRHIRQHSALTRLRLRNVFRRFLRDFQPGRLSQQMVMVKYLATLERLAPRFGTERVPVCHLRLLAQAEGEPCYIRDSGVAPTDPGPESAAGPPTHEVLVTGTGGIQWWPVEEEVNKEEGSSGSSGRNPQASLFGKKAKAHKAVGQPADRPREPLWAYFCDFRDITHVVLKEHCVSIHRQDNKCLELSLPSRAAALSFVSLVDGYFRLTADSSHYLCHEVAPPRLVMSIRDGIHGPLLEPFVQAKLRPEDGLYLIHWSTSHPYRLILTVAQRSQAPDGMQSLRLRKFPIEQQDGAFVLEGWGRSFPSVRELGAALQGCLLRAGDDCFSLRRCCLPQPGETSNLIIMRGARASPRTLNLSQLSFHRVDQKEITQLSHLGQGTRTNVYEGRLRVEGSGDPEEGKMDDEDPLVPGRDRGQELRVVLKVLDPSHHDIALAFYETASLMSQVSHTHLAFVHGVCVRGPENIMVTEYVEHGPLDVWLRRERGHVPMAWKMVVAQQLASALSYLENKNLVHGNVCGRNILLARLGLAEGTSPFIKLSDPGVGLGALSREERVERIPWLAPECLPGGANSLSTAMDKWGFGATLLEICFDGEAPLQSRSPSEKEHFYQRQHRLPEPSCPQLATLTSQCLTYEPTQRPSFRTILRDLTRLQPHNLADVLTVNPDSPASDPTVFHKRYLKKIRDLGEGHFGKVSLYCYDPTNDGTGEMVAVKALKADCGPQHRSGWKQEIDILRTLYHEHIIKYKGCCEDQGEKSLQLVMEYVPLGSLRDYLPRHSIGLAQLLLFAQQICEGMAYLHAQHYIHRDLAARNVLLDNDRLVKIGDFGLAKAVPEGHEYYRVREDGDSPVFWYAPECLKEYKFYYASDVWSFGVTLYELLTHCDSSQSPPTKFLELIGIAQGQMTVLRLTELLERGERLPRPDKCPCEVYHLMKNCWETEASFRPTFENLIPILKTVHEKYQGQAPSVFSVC

## DSEAENPLYD [IK14DE04]
[1]
  c-Src activity: abolished the effects of IK14004
[2]
  Lck activity: abolished the effects of IK14004

## CN[C@@H]1C[C@H]2O[C@@](C)([C@@H]1OC)n1c3ccccc3c3c4c(c5c6ccccc6n2c5c31)C(=O)NC4 [staurosporine, reference compound]
[3]; [11]
  JAK1 activity, reference inhibitor: abolished kinase activity
[4]; [11]
  CaMKIV activity, reference inhibitor: abolished kinase activity
[5]; [11]
  HPK1 activity, reference inhibitor: abolished kinase activity

## COc1cc(-c2nn([C@H]3CC[C@H](N4CCN(C(C)=O)CC4)CC3)c3ncnc(N)c23)ccc1NC(=O)c1cc2ccccc2n1C [A-770041]
[6]
  IC50: 147 nM
[7]; 0.1 µM in 0.1% DMSO, anti-CD3/anti-CD28, 72 h, ELISA, 7 experimental replicates, paired t-test **P < 0.01, Fig. 6a
  IL-2 in supernatant of CD3+ T cell cultures, A-770041: induced IL-2 production
[7]; A-770041 0.1 µM versus IK14004 (0.16 uM), 72 h, Fig. 6a vs 1f
  IL-2 level relative to IK14004: much greater level than in the presence of IK14004
[8]; heparinised whole blood exposed to anti-CD3 plus PMA, ref Stachlewitz and colleagues [66]
  IL-2 production, whole blood: inhibition of IL-2 production
[8]; read-out: IC50, inhibition of IL-2 production, in vitro
  IC50: 80 nM

## CCCCCCCCCC[C@H](NC(=O)[C@H](CCCCCCCCCC)NC(=O)[C@H](CCCCCCCCCC)NC(=O)[C@H](CCCCCCCCCC)NC(=O)[C@H](CCCNC(=N)N)NC(=O)[C@H](Cc1ccc(O)cc1)NC(=O)[C@H](CC(C)C)NC(=O)[C@@H]1CCCN1C(=O)[C@H](CC(N)=O)NC(=O)[C@H](CCCCN)NC(=O)[C@H](C)NC(=O)[C@H](CCCCN)NC(=O)[C@H](CO)NC(=O)[C@@H](N)CCCNC(=N)N)C(N)=O [IK14004] (H-RSKAKNPLYR[Gly(decyl)][Gly(decyl)][Gly(decyl)][Gly(decyl)]-NH2)
[9]
  IC50: 1000 nM
[3]; non-cell-based, [γ-33P-ATP], 2% DMSO, no pre-incubation, Fig. 6i
  IC50: 3 µM
[4]; non-cell-based, [γ-33P-ATP], 2% DMSO, no pre-incubation, Fig. 6h
  IC50: 3 µM
[5]; non-cell-based, [γ-33P-ATP], 2% DMSO, no pre-incubation, Fig. 6f
  IC50: ~1000 nM

## [(2)Adod]4 [IK00041]
[2]
  Lck activity: neither IK14000 nor IK00041 had an effect

B1: daclizumab: a humanised anti-CD25 mAb (antibody, chains of the INN, looked up, V domains shown)
VH: QVQLVQSGAEVKKPGSSVKVSCKASGYTFTSYRMHWVRQAPGQGLEWIGYINPSTGYTEYNQKFKDKATITADESTNTAYMELSSLRSEDTAVYYCARGGGVFDYWGQGTLVTVSS
VL: DIQMTQSPSTLSASVGDRVTITCSASSSISYMHWYQQKPGKAPKLLIYTTSNLASGVPARFSGSGSGTEFTLTISSLQPDDFATYYCHQRSTYPLTFGQGTKVEVK
[10]
  CD40L expression at later time points: inhibitable
